Tests used:
healthy human volunteers = assay: Clinical and laboratory follow-up, CD3+ counts and HAMA in healthy human volunteers; assay type: in vivo; conditions: oral
Description: * OKT3 (Orthoclone OKT-3) was purchased from Ortho Biotech Inc. (New Jersey, USA). Antibodies to OKT3 were evaluated on day 30 using the Human Anti-Mouse Antibodies (HAMA)-ELISA kit (MEDAC, Hamburg, Germany).
Healthy males (≥18 years) not on therapy for medical or other illnesses were enrolled in accordance with the guidelines of the Hebrew University-Hadassah Institutional Committee for Human Clinical Trials, and the approval of the Israel Ministry of Health Committee for Human Trials. Of 35 potential study subjects screened 18 met inclusion and exclusion criteria and were randomized to one of the treatment groups.
Nine subjects (3/group) were orally administered 0.2 mg, 1.0 mg or 5.0 mg of OKT3 daily for 5 days and immune parameters measured on days 5, 10 and 30 days (FIG. 12). Six subjects (3/group) received 7.5 mg of beta glucosylceramide in combination with 0.2 mg or 1.0 mg of OKT3 and 3 subjects received GC alone. All subjects were treated with 20 mg of Omeprazole (a proton pump inhibitor) during the 5 days of dosing. […]
All patients underwent a full medical history and physical examination, including review of adverse effects on days 1, 5, 10, and 30, along with complete blood counts, differential, electrolytes, liver and kidney function tests, and lipid profile. C-reactive protein and sedimentation rates were also evaluated. […]

dendritic cells = assay: Expression of IL-23, IL-10 and TGF-β in dendritic cells by rtPCR; assay type: in vivo, human
Description: Nine subjects (3/group) were orally administered 0.2 mg, 1.0 mg or 5.0 mg of OKT3 daily for 5 days and immune parameters measured on days 5, 10 and 30 days (FIG. 12). Six subjects (3/group) received 7.5 mg of beta glucosylceramide in combination with 0.2 mg or 1.0 mg of OKT3 and 3 subjects received GC alone. All subjects were treated with 20 mg of Omeprazole (a proton pump inhibitor) during the 5 days of dosing. Dosing occurred in the morning before breakfast at the study site following a 8 hours fast.
Frozen PBMCs were used for sorting different cell populations, surface staining, and proliferation assays, and cytokine measurements. Cell sorting was performed by thawing […] PBMCs at room temperature (RT) and washing themed twice in medium at RT in 50-ml tubes in a 10-ml volume at 1,400 rpm. Cells were suspended to 20×10^6/ml and stained with seven colors staining of cells using Fc block, Lin-FITC, CD11c-APC, CD123-PE, CD3-Amcyan, CD4-Alexa700, CD25-PB, and 7-AAD was performed. Compensation controls, including an unstained control, were prepared. All samples were washed with medium and filtered into 15-ml tubes with 2 ml volume each to a total volume of 2 ml. CD4+ effector T cells, CD4+ regulatory T cells, myeloid DCs, and plasmacytoid DCs were sorted. Tubes were washed to get retrieve all sticky cells and spin them at 1,400 rpm. All cell populations were put in 350 μl of RLT 350 ul (lysis buffer), and transferred to eppendorff microtubes, and froze at −70° C. RNA was prepared using Qiagen micro kits (Valencia, Calif., USA) and cDNA was prepared using Applied Biosystems kits (Foster City, Calif., USA). We performed real-time PCR (RT-PCR) for different genes on in regulatory T cells, effector T cells, and DCs was performed.
RT RT-PCR was performed on DC from all patients in all groups. Sorting of DC was performed as described above. Total RNA was isolated from cell pellets using the RNA easy Mini Kit (QIAGENQiagen). RNA was stored at −80° C. First, strand cDNA synthesis was performed for each RNA sample from 0.5-1 μgm of total RNA using Taqman reverse transcription reagents (Applied Biosystems). cDNA was amplified using sequence-specific primers (for IL-23, IL-10, IL-1, IL-6, and TGF-β) and real-time PCR mix (Applied Biosystems) on an ABI7500 cycler. The GAPDH gene was used as an endogenous control to normalize for differences in the amount of total. RNA in each sample. All values were expressed as fold fold-increase or -decrease relative to the expression of GAPDH.
To further investigate the effect of oral OKT3 on the innate immune system, the expression of IL-23, IL-10 and TGF-β in dendritic cells was next measured by rtPCR.

## OKT3: murine monoclonal anti-CD3 antibody (Orthoclone OKT-3, Ortho Biotech)
Healthy human volunteers
  CD3+ lymphocyte counts or modulation of CD3 from the T cell surface: no decrease
Healthy human volunteers; day 30
  anti-OKT3 (HAMA) antibodies: no subject developed
Dendritic cells; 0.2 mg oral, not shown
  subjects with similar findings (IL-10, TGF-β) in dendritic cells: two out of three subjects
Dendritic cells; 1.0 mg oral
  subjects with decrease in IL-23 in dendritic cells: all three subjects
  subjects with increase in IL-10 in dendritic cells: two out of three subjects
  subjects with increase in TGF-β in dendritic cells: one out of three subjects
Dendritic cells; 5.0 mg oral, not shown
  effect on dendritic cells: no effect

— patent US9981037B2, “Combination therapy of beta-glycolipids and antibodies for the treatment of immune-related disorders” (HADASIT MEDICAL RESEARCH SERVICES AND DEVELOPMENT LTD., priority 2008, dated 2018)
